Tests used:
human ERβ = biological target: T1, human ERβ (Homo sapiens, UniProt Q92731); test: Radioligand binding competition with [3H]-17β-estradiol, ERβ; settings: human ERβ ligand binding domain extract, read-out: ER-β IC50
T1 construct: M214–Q530 of human ERβ; Flag (C); made in house; host or cells: E. coli BL21(DE3), clarified lysate

[1] = tested on: metallothionein-II mRNA in Saos-2 cells (via ERβ); test: Regulation of metallothionein II mRNA in Saos-2 cells; type: cell-based
Text: Estrogens acting through ERβ, but not ERα can upregulate metallothionein II mRNA levels in Saos-2 cells as described by Harris [Endocrinology 142: 645–652 (2001)]. Results from this test procedure can be combined with results from the test procedure described below (ERE reporter test procedure) to generate a selectivity profile for compounds of this invention (see also WO 00/37681).

human ERα = biological target: T2, human ERα (Homo sapiens, UniProt P03372); test: Radioligand binding competition with [3H]-17β-estradiol, ERα; settings: human ERα ligand binding domain extract, read-out: ER-α IC50
T2 construct: amino acids M250–V595 of human ERα; His tag (N); made in house; host or cells: E. coli BL21(DE3), clarified lysate
T2 sequence (P03372 250-595): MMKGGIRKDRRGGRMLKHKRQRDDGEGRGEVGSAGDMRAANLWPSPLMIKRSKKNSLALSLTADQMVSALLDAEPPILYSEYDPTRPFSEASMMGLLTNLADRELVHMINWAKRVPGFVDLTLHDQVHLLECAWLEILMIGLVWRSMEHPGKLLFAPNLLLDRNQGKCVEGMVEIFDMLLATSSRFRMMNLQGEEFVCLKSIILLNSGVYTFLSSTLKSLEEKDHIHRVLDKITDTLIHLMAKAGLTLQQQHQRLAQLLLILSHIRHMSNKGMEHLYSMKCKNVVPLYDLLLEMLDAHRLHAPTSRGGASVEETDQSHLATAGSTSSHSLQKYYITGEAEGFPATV

T1 sequence (Q92731 214-530): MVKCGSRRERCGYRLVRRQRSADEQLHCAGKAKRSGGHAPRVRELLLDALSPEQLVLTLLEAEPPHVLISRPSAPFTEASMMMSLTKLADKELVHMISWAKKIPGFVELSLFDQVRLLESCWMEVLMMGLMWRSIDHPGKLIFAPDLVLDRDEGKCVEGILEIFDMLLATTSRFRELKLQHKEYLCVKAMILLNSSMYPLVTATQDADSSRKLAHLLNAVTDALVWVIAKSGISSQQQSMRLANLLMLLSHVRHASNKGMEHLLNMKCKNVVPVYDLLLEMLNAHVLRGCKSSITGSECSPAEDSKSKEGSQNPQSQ

Structure (SMILES) | IC50 (human ERβ) [nM] | Fold upregulation of metallothionein-II mRNA [1] | IC50 (human ERα) [nM]
CC12CCc3c(cc(O)c4cc(O)ccc34)C1CCC2=O (stereo not drawn) [Compound 1, 6-Hydroxyequilenin] | 123 | 11 | 2180
CC12CCc3c(cc(O)c4cc(O)ccc34)C1CC[C@@H]2O (stereo partly drawn) [Compound 5, 6-Hydroxy-3,17β-dihydroequilenin] | 16 | 11 | 238

Source: patent US7235539B2, “6-Hydroxyequilenins as estrogenic agents” (Wyeth, priority 2002, dated 2007)
